This is an account of results in patent US20150086647A1, “PEROXYGEN RELEASE COMPOSITIONS AND METHOD FOR PRODUCING THEM” (CREACHEM SA, priority 2012, published 2015).

This data set can be described thus: Stability in the presence of ferric EDTA (Fe-catalyzed hydrogen peroxide decomposition). The data set is classed as physicochemical. The following applies: with ferric EDTA; for hydrogen peroxide concentration: diluted with tap water. How it is done:
Approximately 250 μL of a 3% solution of ferric EDTA (ethylenediaminetetracetic acid), at pH 7, was added to 3.5 grams of the composition obtained from EXAMPLE I.
The same amount of ferric EDTA was added to 3.5 grams of a 27.5% wt H2O2 solution. Both the 3.5 grams of the composition according to EXAMPLE I and the 3.5 grams H2O2 solution, both containing the ferric EDTA, were diluted with a quantity of tap water until the water contained 50 ppm of H2O2, determined with colorimetric reagent strips (Merck).
The following table indicates the evolution of the hydrogen peroxide concentration (ppm) in both samples.

For H2O2 [Diluted H2O2], under “diluted to 50 ppm H2O2”, the “gas bubbles indicating Fe-catalyzed hydrogen peroxide decomposition” value is reported as “appeared almost instantly”. Moreover, the hydrogen peroxide concentration (0 h) came to 50 ppm, the hydrogen peroxide concentration (4 h) is on record as 20 ppm and the hydrogen peroxide concentration (18 h) worked out at 15 ppm.
